In PubChem BioAssay AID330 (DTP/NCI, 2004) one finds T/C data, which are given here for 24 compounds.

Values joined by “and” are separate entries in the source; they are usually repeats but may differ in a detail not shown here. Equal values may be shown once. Toxic doses and inconclusive results are not listed.

This assay has as its system P388 leukemia ip, CD2F1 mice, survival T/C. In words: NCI In Vivo Anticancer Drug Screen. Data for tumor model P388 Leukemia (intraperitoneal) in CD2F1 (CDF1) mice. As to conditions: endpoint: median survival time, higher = longer survival. Put shortly: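 Mice carrying the transplanted tumor received test compound or vehicle. Survival was recorded in each group, and the value is the treated-group measurement divided by that of the vehicle-treated control group.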

Setting [1] is: dose: 50.0 mg/kg/injection, schedule: Q01DX009 (ip), vehicle: distilled water + Tween-80.
[2] abbreviates: dose: 50.0 mg/kg/injection, schedule: Q01DX009 (ip), vehicle: saline.
Setting [3] is: dose: 100.0 mg/kg/injection, schedule: Q01DX009 (ip), vehicle: saline.
Setting [4] is: dose: 200.0 mg/kg/injection, schedule: Q01DX009 (ip), vehicle: saline.
The mark [5] stands for this setting: dose: 50.0 mg/kg/injection, schedule: Q01DX009 (ip), vehicle: saline with Tween-80.
The mark [6] stands for this setting: dose: 100.0 mg/kg/injection, schedule: Q01DX009 (ip), vehicle: saline with Tween-80.
[7] abbreviates: dose: 200.0 mg/kg/injection, schedule: Q01DX009 (ip), vehicle: saline with Tween-80.
The mark [8] stands for this setting: dose: 60.0 mg/kg/injection, schedule: Q01DX005 (ip), vehicle: saline with Tween-80.
The mark [9] stands for this setting: dose: 120.0 mg/kg/injection, schedule: Q01DX005 (ip), vehicle: saline with Tween-80.
Where [10] appears, read: dose: 240.0 mg/kg/injection, schedule: Q01DX005 (ip), vehicle: saline with Tween-80.
Setting [11] is: dose: 50.0 mg/kg/injection, schedule: Q01DX005 (ip), vehicle: Klucel (hydroxypropylcellulose) (HPC).
Setting [12] is: dose: 50.0 mg/kg/injection, schedule: Q04DX002 (ip), vehicle: saline with Tween-80.
The mark [13] stands for this setting: dose: 100.0 mg/kg/injection, schedule: Q04DX002 (ip), vehicle: saline with Tween-80.
The mark [14] stands for this setting: dose: 200.0 mg/kg/injection, schedule: Q04DX002 (ip), vehicle: saline with Tween-80.
[15] abbreviates: dose: 25.0 mg/kg/injection, schedule: Q01DX009 (ip), vehicle: saline with Tween-80.
Where [16] appears, read: dose: 50.0 mg/kg/injection, schedule: Q01DX005 (ip), vehicle: saline with Tween-80.
Where [17] appears, read: dose: 100.0 mg/kg/injection, schedule: Q01DX005 (ip), vehicle: saline with Tween-80.
Setting [18] is: dose: 200.0 mg/kg/injection, schedule: Q01DX005 (ip), vehicle: saline with Tween-80.
[19] abbreviates: dose: 12.5 mg/kg/injection, schedule: Q01DX009 (ip), vehicle: saline with Tween-80.

`CNC(=O)OCc1c(COC(=O)NC)c(-c2ccc(C(F)(F)F)cc2)n(C)c1C`: the T/C reads like this: (dose: 3.13 mg/kg/injection, schedule: Q01DX009 (ip), vehicle: distilled water + Tween-80) 123 % of control; under setting [1], 115 % of control.
Consider `Cc1nc(Sc2nc3ccc([N+](=O)[O-])cc3s2)sc1C`, for which the T/C runs as follows: under setting [2], 87 % of control; under setting [3], 96 % of control; under setting [4], 105 % of control; (dose: 400.0 mg/kg/injection, schedule: Q01DX009 (ip), vehicle: saline) 96 % of control.
In the case of `CC1(C)CN(C(C)(C)C)CN2C1OCC2(C)C` (stereo not given), the T/C reads like this: under setting [5], 101 % of control; under setting [6], 112 % of control; under setting [7], 112 % of control.
As for `CC(=O)N(O)C1CCCCC1`, the T/C is 101 % of control under setting [5]; 112 % of control under setting [2]; 101 % of control under setting [6]; 97 % of control under setting [3]; 103 % of control under setting [7]; 100 % of control under setting [4].
In the case of `NC(N)=NCCCC(N=C1C=CC(=NC(CCCN=C(N)N)C(=O)O)C=C1)C(=O)O` (stereo not given), the T/C was 99 % of control (dose: 50.0 mg/kg/injection, schedule: Q04DX002 (ip), vehicle: distilled water + alcohol); 101 % of control (dose: 100.0 mg/kg/injection, schedule: Q04DX002 (ip), vehicle: distilled water + alcohol); 104 % of control (dose: 200.0 mg/kg/injection, schedule: Q04DX002 (ip), vehicle: distilled water + alcohol); 107 % of control (dose: 400.0 mg/kg/injection, schedule: Q04DX002 (ip), vehicle: distilled water + alcohol); 108 % of control (dose: 600.0 mg/kg/injection, schedule: Q04DX002 (ip), vehicle: distilled water + alcohol).
As to `CCOC(=O)C(C)NC(=O)OCc1ccccc1` (stereo not given), the T/C runs as follows: under setting [8], 101 % of control; under setting [9], 112 % of control; under setting [10], 116 % of control.
For `C/C(=N\Nc1ccc2ccccc2n1)c1ccccn1`, the T/C is, setting by setting: (dose: 12.5 mg/kg/injection, schedule: Q01DX005 (ip), vehicle: Klucel (hydroxypropylcellulose) (HPC)) 107 % of control; (dose: 25.0 mg/kg/injection, schedule: Q01DX005 (ip), vehicle: Klucel (hydroxypropylcellulose) (HPC)) 106 % of control; under setting [11], 114 % of control and 116 % of control.
Consider `Cc1ccc(N=C2C(=O)Nc3ccccc32)cc1`, for which the T/C by setting is: under setting [12], 108 % of control; under setting [13], 105 % of control; under setting [14], 104 % of control.
As to `CN=C(N)N/N=C(\C)c1ccc2c(ccc3ccccc32)c1`, the T/C is 105 % of control and 108 % of control (dose: 6.25 mg/kg/injection, schedule: Q04DX002 (ip), vehicle: saline with Tween-80); 104 % of control and 107 % of control (dose: 12.5 mg/kg/injection, schedule: Q04DX002 (ip), vehicle: saline with Tween-80); 122 % of control (dose: 25.0 mg/kg/injection, schedule: Q04DX002 (ip), vehicle: saline with Tween-80); 123 % of control under setting [12]; 123 % of control under setting [13]; 107 % of control under setting [14].
For the compound `CC(C)(CCC(=S)N1CCOCC1)c1ccccc1`, the T/C is 111 % of control under setting [15], 96 % of control under setting [5], 105 % of control under setting [6] and 105 % of control under setting [7].
Turning to `N#Cc1cn(C2OC(CO)C(O)C2O)c2ncnc(Cl)c12` (stereo not given), the T/C was 151 % of control and 174 % of control under setting [8]; 111 % of control under setting [9].
As for `O=C(Nc1ccccc1-c1ccccc1)C(=O)Nc1ccccc1-c1ccccc1`, the T/C under setting [16] is 90 % of control and the T/C under setting [17] is 89 % of control.
With `COC1=Cc2nc3ccccc3nc2OC1(C)C`, the T/C is 110 % of control under setting [8], 100 % of control under setting [9] and 92 % of control under setting [10].
With `O=C1c2ccccc2C(=O)c2cc(NC(=O)C(F)(F)F)ccc21`, the T/C is, setting by setting: (dose: 50.0 mg/kg/injection, schedule: Q01DX005 (ip), vehicle: Klucel + Tween-80) 99 % of control; (dose: 100.0 mg/kg/injection, schedule: Q01DX005 (ip), vehicle: Klucel + Tween-80) 95 % of control; (dose: 200.0 mg/kg/injection, schedule: Q01DX005 (ip), vehicle: Klucel + Tween-80) 96 % of control.
As for `Cn1c(=O)c2c(ncn2-c2ccc(N)cn2)n(C)c1=O`, the T/C (dose: 12.5 mg/kg/injection, schedule: Q01DX005 (ip), vehicle: distilled water + alcohol) is 98 % of control; the T/C (dose: 25.0 mg/kg/injection, schedule: Q01DX005 (ip), vehicle: distilled water + alcohol) is 104 % of control; the T/C under setting [11] was 96 % of control; the T/C (dose: 50.0 mg/kg/injection, schedule: Q01DX005 (ip), vehicle: distilled water + alcohol) is 100 % of control.
Consider `c1ccc2c(c1)CC/C2=N\OCC1CO1` (stereo not given), for which the T/C by setting is: under setting [13], 102 % of control; under setting [14], 104 % of control; (dose: 400.0 mg/kg/injection, schedule: Q04DX002 (ip), vehicle: saline with Tween-80) 106 % of control.
Take `Cc1cc(-c2ccccc2)n(C(C(=O)c2ccccc2)c2ccccc2)n1` (stereo not given): the T/C was 101 % of control under setting [5], 106 % of control under setting [6] and 100 % of control under setting [7].
Regarding `COC(=O)C(NC(=O)OCc1ccccc1)C(C)O` (stereo not given), the T/C by setting is: (dose: 12.5 mg/kg/injection, schedule: Q01DX009 (ip), vehicle: distilled water + Tween-80) 90 % of control; (dose: 25.0 mg/kg/injection, schedule: Q01DX009 (ip), vehicle: distilled water + Tween-80) 102 % of control; under setting [1], 100 % of control; (dose: 100.0 mg/kg/injection, schedule: Q01DX009 (ip), vehicle: distilled water + Tween-80) 105 % of control; (dose: 200.0 mg/kg/injection, schedule: Q01DX009 (ip), vehicle: distilled water + Tween-80) 94 % of control.
Take `C=C(C)C(=O)Nc1ccc(-n2[nH]c(C)c(N=Nc3ccc(N(C)C)cc3)c2=O)cc1`: the T/C reads like this: under setting [16], 98 % of control; under setting [17], 96 % of control; under setting [18], 100 % of control.
Turning to `CC(C(=O)O)C1(O)CCCCC1` (stereo not given), the T/C under setting [19] was 99 % of control, the T/C under setting [15] was 105 % of control, the T/C under setting [5] was 102 % of control and the T/C under setting [6] was 106 % of control.
Turning to `C[CH2][Sn]([CH2]C)([n]1c(C)nc2ccccc21)[n]1c(C)nc2ccccc21`, the T/C is 110 % of control (dose: 1.56 mg/kg/injection, schedule: Q01DX005 (ip), vehicle: Klucel (hydroxypropylcellulose) (HPC)); 122 % of control (dose: 3.12 mg/kg/injection, schedule: Q01DX005 (ip), vehicle: Klucel (hydroxypropylcellulose) (HPC)); 122 % of control (dose: 6.25 mg/kg/injection, schedule: Q01DX005 (ip), vehicle: Klucel (hydroxypropylcellulose) (HPC)).
Consider `ClC1CCCC[N-]1.ClC1CCCC[N-]1.[Cl][Pt+2][Cl]` (stereo not given), for which the T/C is, setting by setting: under setting [19], 109 % of control; under setting [15], 103 % of control; under setting [5], 101 % of control; under setting [6], 97 % of control; under setting [7], 99 % of control.
As for `COC(=O)CC1(C(=O)OC)Oc2ccc(Br)cc2C(=O)N1c1ccc(Br)cc1Cl` (stereo not given), the T/C reads like this: under setting [16], 96 % of control; under setting [17], 96 % of control; under setting [18], 91 % of control.
`CNC(=O)Oc1ccc(OC2OC(CO)C(O)C(O)C2O)c2ccccc12` (stereo not given): the T/C is, setting by setting: (dose: 100.0 mg/kg/injection, schedule: Q01DX001 (ip), vehicle: saline) 101 % of control; (dose: 200.0 mg/kg/injection, schedule: Q01DX001 (ip), vehicle: saline) 104 % of control; (dose: 400.0 mg/kg/injection, schedule: Q01DX001 (ip), vehicle: saline) 103 % of control.
